Experimental data taken from US20070128217A1 (priority 2003, published 2007).

Legend:
[1] = system: recombinant human anti-SARS-CoV antibody 03-018; type: binding; parameters: Binding of antibody 03-018 to linear peptides of the N protein of SARS-CoV Urbani / Binding of antibody 03-018 to looped/cyclic peptides of the N protein of SARS-CoV Urbani: unit not given here
[2] = system: rabbit serum obtained by immunizing a rabbit with the SARS-CoV strain Frankfurt 1; type: binding; parameters: Binding of a rabbit serum to linear peptides / Binding of a rabbit serum to looped peptides / Rabbit serum linear peptides / Rabbit serum looped peptides / Binding of a rabbit serum to linear peptides of protein N of SARS-CoV Urbani (Rabbit serum linear peptides) / Binding of a rabbit serum to looped/cyclic peptides of protein N of SARS-CoV Urbani (Rabbit serum looped peptides): unit not given here
[3] = system: control sera (pooled serum of ten healthy LUMC hospital workers; commercial negative donor pooled serum from the Dutch bloodbank); type: binding, human; parameters: Binding of Control serum LUMC to linear peptides / Binding of Control serum Blood-bank to linear peptides / Binding of Control serum LUMC to looped peptides / Binding of Control Serum Blood-Bank to Looped peptides / Binding of Control serum LUMC to linear peptides of the protein M of SARS-CoV Urbani / Binding of Control serum Blood-bank to linear peptides of the protein M of SARS-CoV Urbani / Binding of Control serum LUMC to looped peptides of the protein M of SARS-CoV Urbani / Binding of Control Serum Blood-Bank to Looped peptides of the protein M of SARS-CoV Urbani: unit not given here
[4] = system: antibodies in sera from SARS patients (sera 1a, 1b, 2, 6, 37, 62, London, SARS-yellow, SARS-green); type: binding, human; parameters: Binding of serum 6 to linear peptides of protein X1 of SARS-CoV Urbani / Binding of serum 37 to linear peptides of protein X1 of SARS-CoV Urbani / Binding of serum 6 to looped/cyclic peptide (PEPSCAN-ELISA) / Binding of serum 37 to looped/cyclic peptide (PEPSCAN-ELISA) / Binding of serum 37 to looped/cyclic peptides of protein X1 of SARS-CoV Urbani / Binding of serum 6 to linear peptides of protein X2 / Binding of serum 37 to linear peptides of protein X2 / Binding of serum 37 to looped/cyclic peptides of protein X2 of SARS-CoV Urbani / Binding of serum 6 to linear peptides of protein M of SARS-CoV Urbani / Binding of serum 37 to linear peptides of protein M of SARS-CoV Urbani / Binding of serum 6 to looped/cyclic peptides of protein M of SARS-CoV Urbani / Binding of serum 37 to looped/cyclic peptides of protein M of SARS-CoV Urbani / Binding of serum 6 to linear peptides of protein X3 of SARS-CoV Urbani / Binding of serum 37 to linear peptides of protein X3 of SARS-CoV Urbani / Binding of serum 37 to looped/cyclic peptides of protein X3 of SARS-CoV Urbani / Binding of serum 6 to linear peptides of protein X4 of SARS-CoV Urbani / Binding of serum 37 to linear peptides of protein X4 of SARS-CoV Urbani / Binding of serum 37 to looped/cyclic peptides of protein X4 of SARS-CoV Urbani / Binding of serum 6 to linear peptides of protein X5 of SARS-CoV Urbani / Binding of serum 37 to linear peptides of protein X5 of SARS-CoV Urbani / Binding of serum 37 to looped/cyclic peptides of protein X5 of SARS-CoV Urbani / Binding of serum 6 to linear peptides of protein N of SARS-CoV Urbani / Binding of serum 37 to linear peptides of protein N of SARS-CoV Urbani / Binding of serum 6 to linear peptide (PEPSCAN-ELISA) / Binding of serum 1a to looped/cyclic peptides of protein N of SARS-CoV Urbani / Binding of serum 1b to looped/cyclic peptides of protein N of SARS-CoV Urbani / Binding of serum 2 to looped/cyclic peptides of protein N of SARS-CoV Urbani / Binding of serum 6 to looped/cyclic peptides of protein N of SARS-CoV Urbani / Binding of serum 37 to looped/cyclic peptides of protein N of SARS-CoV Urbani / Binding of serum 62 to looped/cyclic peptides of protein N of SARS-CoV Urbani / Binding of serum London to looped/cyclic peptides of protein N of SARS-CoV Urbani / Binding of serum SARS-green to looped/cyclic peptides of protein N of SARS-CoV Urbani: unit not given here

| Sequence | Binding of antibody 03-018 to linear peptides of the N protein of SARS-CoV Urbani [1] | Binding of antibody 03-018 to looped/cyclic peptides of the N protein of SARS-CoV Urbani [1] | Binding of a rabbit serum to linear peptides of protein N of SARS-CoV Urbani (Rabbit serum linear peptides) [2] | Binding of a rabbit serum to looped/cyclic peptides of protein N of SARS-CoV Urbani (Rabbit serum looped peptides) [2] | Binding of Control Serum Blood-Bank to Looped peptides [3] | Binding of Control serum Blood-bank to linear peptides [3] | Binding of Control serum LUMC to linear peptides [3] | Binding of Control serum LUMC to looped peptides [3] | Binding of serum 1a to linear peptides of protein N of SARS-CoV Urbani [4] | Binding of serum 1a to looped/cyclic peptides of protein N of SARS-CoV Urbani [4] | Binding of serum 1b to linear peptides of protein N of SARS-CoV Urbani [4] | Binding of serum 1b to looped/cyclic peptides of protein N of SARS-CoV Urbani [4] | Binding of serum 2 to linear peptides of protein N of SARS-CoV Urbani [4] | Binding of serum 2 to looped/cyclic peptides of protein N of SARS-CoV Urbani [4] | Binding of serum 6 to looped/cyclic peptides of protein N of SARS-CoV Urbani [4] | Binding of serum 37 to looped/cyclic peptides of protein N of SARS-CoV Urbani [4] | Binding of serum 62 to looped/cyclic peptides of protein N of SARS-CoV Urbani [4] | Binding of serum London to looped/cyclic peptides of protein N of SARS-CoV Urbani [4] | Binding of serum SARS-green to looped/cyclic peptides of protein N of SARS-CoV Urbani [4] | Binding of serum SARS-yellow to looped/cyclic peptides of protein N of SARS-CoV Urbani [4] | other results |
| --- | --- | --- | --- | --- | --- | --- | --- | --- | --- | --- | --- | --- | --- | --- | --- | --- | --- | --- | --- | --- | --- |
| QDLIRQGTDYKHWPQ | 0.1 | 0.2 | 0.1 | 0.2 | 0.6 | 0.7 | 0.6 | 0.5 | 0.2 | 0.3 | 0.1 | 0.2 | 0.2 | 0.3 | 0.2 | 0.5 | 0.4 | 0.4 | 0.2 | 0.3 | Binding of serum 6 to linear peptides of protein N of SARS-CoV Urbani [4]: 0.2; Binding of serum 37 to linear peptides of protein N of SARS-CoV Urbani [4]: 0.6; Binding of serum 62 to linear peptides of protein N of SARS-CoV Urbani [4]: 0.5; Binding of serum London to linear peptides of protein N of SARS-CoV Urbani [4]: 0.4; Binding of serum SARS-green to linear peptides of protein N of SARS-CoV Urbani [4]: 0.2; Binding of serum SARS-yellow to linear peptides of protein N of SARS-CoV Urbani [4]: 0.4 |
| QFAPSASAFFGMSRI | 0.1 | 0.3 | 0.1 | 0.4 | – | – | – | – | 0.2 | 0.4 | 0.1 | 0.2 | 0.1 | 0.4 | 0.2 | 0.6 | 0.7 | 0.4 | 0.5 | 0.3 | Control Serum Blood-Bank Looped peptides [3]: 0.6; Control serum Blood-bank linear peptides [3]: 0.7; Control serum LUMC linear peptides [3]: 0.5; Control serum LUMC looped peptides [3]: 0.6; Binding of serum 6 to linear peptides of protein N of SARS-CoV Urbani [4]: 0.1; Binding of serum 37 to linear peptides of protein N of SARS-CoV Urbani [4]: 0.4; Binding of serum 62 to linear peptides of protein N of SARS-CoV Urbani [4]: 0.4; Binding of serum London to linear peptides of protein N of SARS-CoV Urbani [4]: 0.4; Binding of serum SARS-green to linear peptides of protein N of SARS-CoV Urbani [4]: 0.1; Binding of serum SARS-yellow to linear peptides of protein N of SARS-CoV Urbani [4]: 0.5 |
| QGLPNNTASWFTALT | 0.1 | 0.3 | 0.1 | 0.6 | 0.8 | 0.6 | 0.7 | 0.8 | 0.2 | 0.4 | 0.1 | 0.3 | 0.2 | 0.5 | 0.3 | 0.7 | 0.7 | 0.5 | 0.6 | 0.7 | Binding of serum 6 to linear peptides of protein N of SARS-CoV Urbani [4]: 0.1; Binding of serum 37 to linear peptides of protein N of SARS-CoV Urbani [4]: 0.6; Binding of serum 62 to linear peptides of protein N of SARS-CoV Urbani [4]: 0.7; Binding of serum London to linear peptides of protein N of SARS-CoV Urbani [4]: 0.4; Binding of serum SARS-green to linear peptides of protein N of SARS-CoV Urbani [4]: 0.2; Binding of serum SARS-yellow to linear peptides of protein N of SARS-CoV Urbani [4]: 0.6 |
| QGNFGDQDLIRQGTD | 0.1 | 0.2 | 0.2 | 0.4 | 0.5 | 0.6 | 0.7 | 0.6 | – | 0.4 | – | 0.3 | – | 0.3 | 0.2 | 0.6 | 0.5 | 0.4 | 0.7 | 0.6 | Binding of serum 1a to linear peptide (PEPSCAN-ELISA) [4]: 0.3; Binding of serum 1b to linear peptide (PEPSCAN-ELISA) [4]: 0.2; Binding of serum 2 to linear peptide (PEPSCAN-ELISA) [4]: 0.2; Binding of serum 6 to linear peptide (PEPSCAN-ELISA) [4]: 0.2; Binding of serum 37 to linear peptide (PEPSCAN-ELISA) [4]: 0.8; Binding of serum 62 to linear peptide (PEPSCAN-ELISA) [4]: 0.8; Binding of serum London to linear peptide (PEPSCAN-ELISA) [4]: 0.5; Binding of serum SARS-green to linear peptide (PEPSCAN-ELISA) [4]: 0.6; Binding of serum SARS-yellow to linear peptide (PEPSCAN-ELISA) [4]: 0.8 |
| QGQTVTKKSAAEASK | 0.1 | 0.2 | 0.2 | 0.2 | 0.4 | 1.1 | 1.0 | 0.4 | – | 0.2 | – | 0.1 | – | 0.2 | 0.1 | 0.4 | 0.2 | 0.3 | 0.1 | 0.2 | Recognition of the peptide by sera of SARS-CoV infected individuals, and form (linear, looped/cyclic) in which it is recognized [4]: recognized in linear form |
